Patent US9072729B2, “Method for treating fibrosis and cancer with imidazolium and imidazolinium compounds” (Agency for Science, Technology and Research, priority 2008, dated 2015)

How the values were obtained:
Type in all cases: cell-based, rat
HSC-T6 cells = experiment: Glutathione (GSH) and GSSG assays; conditions: 48 h
Description: FIG. 3. […] (c) DBZIM and (d) TDBZIM both suppressed cellular GSSG (the oxidation product of GSH). (e) DBZIM and (f) TDBZIM both enhanced the GSH/GSSG ratio. HSC-T6 cells were incubated with compounds of various concentrations for 48 h, and assayed for the total GSH and GSSG amounts. The GSH/GSSG ratio was calculated as (GSH−GSSG)/GSSG. The GSH and GSSG amounts were normalized against the total protein. Note that DBZIM was dissolved in DMSO, and TDBZIM was dissolved in H2O. The data were presented as mean and SEM, N=6, *^aP<0.05, *^bP<0.01, *^cP<0.005, and *^dP<0.0005, when compared to the vehicle control.
Total cellular GSH and GSSG levels were determined by using assay kits from Cayman Chemical (Ann Arbor, Mich., USA) following the manufacturer's instructions. Briefly, HSC-T6 cells treated with DBZIM, TDBZIM, NAC, or EGCG were scalped and homogenized in phosphate buffered saline (PBS) by sonication at 60% frequency for 30 s, and the supernatant was collected after centrifugation at 16,000×g for 10 min at 4° C. Protein content of the samples was determined by bicinchonicic acid (BCA) assay.
For GSH assays, the protein sample was deproteinated by metaphosphoric acid (Aldrich, Catalog No. 23927-5), and the pH was adjusted by triethanolamine (Aldrich, Catalog No. T5830-0) according to the manual. The sample was ready for assaying total GSH including both the reduced and oxidized forms. Quantification of GSSG, exclusive of GSH, was performed by first derivatizing GSH with 2-vinylpyridine and assaying separately. Colorimetric signal was recorded at 405 nm with a Tecan Safire II plate reader. The levels of GSH or GSSG were determined as nmol/μg protein.

GFAP = experiment: Real-time RT-PCR of GFAP mRNA in HSC T6 cells
Description: (§1) FIG. 6. (a) DBZIM and (b) TDBZIM suppressed the mRNA expression of HSC activation markers (GFAP and SMAA) and fibrotic endpoints (col1a1 and fibronectin) in a dosage-dependent manner. […] The ΔΔCt method was used for relative quantification with vehicle control sample being the calibrator. The data were presented as mean and SEM, N=6, *^aP<0.05, *^bP<0.01, *^cP<0.005, and *^dP<0.0005, when compared to the vehicle control. FIG. 7. DBZIM (100 μM) and TDBZIM (100 μM) suppressed (a) GFAP, (b) SMAA, (c) col1a1 and (d) fibronectin mRNA expression in a time-dependent manner. HSC T6 cells were treated with DBZIM and TDBZIM, and assayed after 8, 24 and 48 h. […] FIG. 14. […] (50 μM), […] (50 μM), […] (10 μM) and DBZBIM (100 μM) were dissolved in DMSO with a final DMSO concentration of 0.2% (v/v). DPIM (2 mM), EGCG (25 μM) and DBZIM (100 μM) were dissolved in H2O. β-actin was used as the normalization gene; its expression was constant under the experimental conditions. Relative quantification was normalized against the respective vehicle control. The data were presented as mean and SEM, N=6, *^aP<0.05, *^cP<0.005, and *^dP<0.0005, when compared to the vehicle control. Total RNA was isolated using NucleoSpin RNAII isolation kit ([…], Germany), and quantified by ND-100 spectrophotometer (Nanodrop Technologies, DE, USA). The details of real-time RT-PCR were reported elsewhere (Zhang et al. 2006). Briefly, it was a two-step real-time RT-PCR using Taqman chemistry. Total RNA was first reverse transcribed to cDNA, and real-time PCR was run and detected in ABI 7500 Fast Real-Time PCR System (Applied Biosystems, CA, USA). Primers and probes for rat GFAP, SMAA, collagen Ia1, fibronectin, TGF-β1, TGF-β receptor I (TGFβ RI) and IL-6 were ordered from Taqman's assay-on-demand database. Rat β-actin was used as normalization gene, and its expression level was constant (CT difference was <±0.5) throughout the experimental settings in this study. Relative quantification of target mRNA was calculated using comparative threshold cycle method (ΔΔCT) as described in User Bulletin #2 (ABI Prism 7700 Sequence Detection System). Relative quantification was given by 2^-ΔΔCT to express the up-regulation or down regulation of the target gene under the treatments compared to the control.

CAT = experiment: Catalase (CAT) activity assay in treated cells; conditions: for attenuation of CAT activity: 48 h
Description: FIG. 4. […] Enzyme activity was normalized against total protein. DBZIM was dissolved in DMSO, and TDBZIM was dissolved in H2O. The data were presented as mean and SEM, N=6, *^aP<0.05, *^bP<0.01, *^cP<0.005, and *^dP<0.0005, when compared to the vehicle control.
Activity levels of three anti-oxidant enzymes, GPx, CAT and SOD, were determined using assay kits from Cayman Chemical. To assay GPx and CAT activities, protein samples were harvested in ice-cold PBS containing 1 mM of EDTA. […] Protein content was determined by BCA assay.
CAT activity was determined based on reaction of the enzyme with methanol in the presence of H2O2. The formaldehyde produced was measured spectrophotometrically at 540 nm using Purpald as the chromogen. CAT activity was expressed as nmol/min/mg protein.

SMAA = experiment: Real-time RT-PCR of SMAA mRNA in HSC T6 cells; conditions: for change of SMAA mRNA: 8 h
Description: as §1

[1] = 300 μM, without statistical significance

Compound | depletion of GSSG (HSC-T6 cells; 10 μM) | enhancement of GSH/GSSG ratio (HSC-T6 cells; 10 μM) | depletion of GSSG (HSC-T6 cells; 50 μM) | enhancement of GSH/GSSG ratio (HSC-T6 cells; 50 μM) | enhancement of GSH/GSSG ratio (HSC-T6 cells; 100 μM) | decrease of GFAP mRNA (GFAP; 10 μM, 48 h) | decrease of GFAP mRNA (GFAP; 100 μM, 8 h) | decrease of GFAP mRNA (GFAP; 100 μM, 24 h) | decrease of GFAP mRNA (GFAP; 100 μM, 48 h) | attenuation of CAT activity (CAT; 10 μM) | attenuation of CAT activity (CAT; 50 μM) | attenuation of CAT activity (CAT; 100 μM) | change of SMAA mRNA (SMAA; 100 μM) | also measured
(−)-Epigallocatechin gallate [EGCG, reference compound] | – | – | – | – | – | – | – | – | – | – | – | – | – | reduction of GSSG (references) (HSC-T6 cells; EGCG 25 μM, NAC 5 mM): 42%; increase in GSH/GSSG ratio (references) (HSC-T6 cells; NAC 5 mM, EGCG 25 μM): 2 fold; induction of total GSH (references) (HSC-T6 cells; NAC 5 mM, EGCG 25 μM): 19%; inhibition on HSC activation and fibrosis (GFAP, SMAA, fibronectin, col1a1 mRNA) (GFAP; EGCG 25 μM, 48 h): did not show significant inhibition; suppression of CAT activity (references) (CAT; EGCG, NAC (FIG. 4c)): 13%
CC(C)n1cc[n+](C(C)C)c1.F[B-](F)(F)F [DPIM, 1,3-diisopropylimidazolium tetrafluoroborate] | – | – | – | – | – | – | – | – | – | – | – | – | – | suppression of GFAP mRNA (GFAP; 48 h, DPIM 2 mM, AMIM 50 μM, TMPHIM 50 μM, DBZBIM 100 μM): 78%; suppression of SMAA mRNA (SMAA; 48 h, DBIM 1 mM, DPIM 2 mM, AMIM 50 μM, TMPHIM 50 μM): 78%
1,3,5-tris(4-methyl-imidazolium)-linked cyclophane.3Br [TDBZIM] | 12% | 14% | 35% | 65% | 106% | 20% | 30% | 36% | 60% | 25% | 31% | 20% | no change | depletion of GSSG (HSC-T6 cells; 100 μM): 50%; effect on total cellular GSH level (HSC-T6 cells; 10-100 μM): did not alter; decrease of GFAP mRNA (GFAP; 1 μM, 48 h): 32%; decrease of SMAA mRNA (SMAA; 1 μM, 48 h): 27%; transient induction of SMAA mRNA (SMAA; 100 μM, 24 h): up to 79%
[Br-].c1ccc(Cn2cc[n+](Cc3ccccc3)c2)cc1 [DBZIM, 1,3-bisbenzylimidazolium bromide] | 13% | 8% | 23% | 15% | 23% | 18% | 28% | 40% | 56% | 19% | 16% | 12% | no change | attenuation of total GSH level (HSC-T6 cells; 10 μM): 7%; attenuation of total GSH level (HSC-T6 cells; 50 μM): 12%; attenuation of total GSH level (HSC-T6 cells; 100 μM): 20%; GSH/GSSG ratio relative to control group (HSC-T6 cells; 300 μM): 7.4 fold; depletion of GSSG (HSC-T6 cells; 300 μM): 85%; enhancement of total GSH level (HSC-T6 cells; [1]): 8%; depletion of GSSG (HSC-T6 cells; 1001 μM): 35%; decrease of GFAP mRNA (GFAP; 300 μM, 48 h): 86%; attenuation of CAT activity (CAT; [1]): 8%; decrease of SMAA mRNA (SMAA; 100 μM, 48 h): 21%; decrease of SMAA mRNA (SMAA; 300 μM, 48 h): 58%
